Source: paper PMC3914206

What was measured:
Experiment in all cases: KiNativ chemical proteomics profiling in HeLa and PC3 cell lysates
Format in all cases: binding
[1] = molecular target: T1, selected panels of kinases in HeLa and PC3 cell lysates (Homo sapiens, UniProt O60674); conditions: 10 uM; proteome HEL; peptide IGDFGLTk[…]; labeling site Activation Loop
T1 construct: endogenous in cells; host or cells: HeLa and PC3 cell lysates

[2] = molecular target: T2, selected panels of kinases in HeLa and PC3 cell lysates (Homo sapiens, UniProt P10398); conditions: 10 uM; proteome HEL; peptide DLk[…]; labeling site Lys2
T2 construct: endogenous in cells; host or cells: HeLa and PC3 cell lysates

[3] = molecular target: T3, selected panels of kinases in HeLa and PC3 cell lysates (Homo sapiens, UniProt P21127); conditions: 10 uM; PITSLRE; peptide DLk[…]; proteome PC3; labeling site Lys2
T3 construct: endogenous in cells; host or cells: HeLa and PC3 cell lysates

[4] = molecular target: T4, selected panels of kinases in HeLa and PC3 cell lysates (Homo sapiens, UniProt P41743); conditions: 10 uM; PKCi; peptide IYAMkVVK; proteome HEL; labeling site Lys1
T4 construct: endogenous in cells; host or cells: HeLa and PC3 cell lysates

[5] = molecular target: T5, selected panels of kinases in HeLa and PC3 cell lysates (Homo sapiens, UniProt P42680); conditions: 10 uM; TEC; peptide […]kFPVK; proteome HEL; labeling site Activation Loop
T5 construct: endogenous in cells; host or cells: HeLa and PC3 cell lysates

[6] = molecular target: T6, selected panels of kinases in HeLa and PC3 cell lysates (Homo sapiens, UniProt P43405); conditions: 10 uM; SYK; peptide ISDFGLSkALR; proteome HEL; labeling site Activation Loop
T6 construct: endogenous in cells; host or cells: HeLa and PC3 cell lysates

[7] = molecular target: T7, selected panels of kinases in HeLa and PC3 cell lysates (Homo sapiens, UniProt Q13043); conditions: 10 uM, peptide […]k[…], labeling site Lys1
T7 construct: endogenous in cells; host or cells: HeLa and PC3 cell lysates
T7 sequence (Q13043 1-487): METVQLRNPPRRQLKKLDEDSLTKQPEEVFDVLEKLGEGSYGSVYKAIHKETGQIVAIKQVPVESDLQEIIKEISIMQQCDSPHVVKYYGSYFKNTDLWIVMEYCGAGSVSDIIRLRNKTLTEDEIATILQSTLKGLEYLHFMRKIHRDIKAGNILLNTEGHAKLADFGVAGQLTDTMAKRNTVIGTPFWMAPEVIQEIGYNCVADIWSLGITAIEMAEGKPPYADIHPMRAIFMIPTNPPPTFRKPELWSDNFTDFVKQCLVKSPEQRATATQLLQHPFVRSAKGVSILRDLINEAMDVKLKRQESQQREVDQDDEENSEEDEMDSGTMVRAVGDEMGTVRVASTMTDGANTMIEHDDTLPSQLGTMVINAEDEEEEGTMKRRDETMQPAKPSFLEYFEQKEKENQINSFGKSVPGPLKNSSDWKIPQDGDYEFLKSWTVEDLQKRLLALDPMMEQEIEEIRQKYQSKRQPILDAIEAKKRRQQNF

[8] = molecular target: T8, selected panels of kinases in HeLa and PC3 cell lysates (Homo sapiens, UniProt Q58A45); conditions: 10 uM; PAN3; peptide VMDPTkILITGK; proteome HEL
T8 construct: endogenous in cells; host or cells: HeLa and PC3 cell lysates

[9] = molecular target: T9, selected panels of kinases in HeLa and PC3 cell lysates (Homo sapiens, UniProt Q96SB4); conditions: 10 uM; SRPK1; peptide IIHTDIk[…]; proteome PC3; labeling site Lys2
T9 construct: endogenous in cells; host or cells: HeLa and PC3 cell lysates

[10] = molecular target: T10, selected panels of kinases in HeLa and PC3 cell lysates (Homo sapiens, UniProt Q99683); conditions: 10 uM; proteome HEL; peptide DIk[…]; labeling site Lys2
T10 construct: endogenous in cells; host or cells: HeLa and PC3 cell lysates

[11] = molecular target: T11, selected panels of kinases in HeLa and PC3 cell lysates (Homo sapiens, UniProt Q9NZJ5); conditions: 10 uM, PEK, peptide DLk[…], labeling site Lys2
T11 construct: endogenous in cells; host or cells: HeLa and PC3 cell lysates
T11 sequence (Q9NZJ5 30-1116): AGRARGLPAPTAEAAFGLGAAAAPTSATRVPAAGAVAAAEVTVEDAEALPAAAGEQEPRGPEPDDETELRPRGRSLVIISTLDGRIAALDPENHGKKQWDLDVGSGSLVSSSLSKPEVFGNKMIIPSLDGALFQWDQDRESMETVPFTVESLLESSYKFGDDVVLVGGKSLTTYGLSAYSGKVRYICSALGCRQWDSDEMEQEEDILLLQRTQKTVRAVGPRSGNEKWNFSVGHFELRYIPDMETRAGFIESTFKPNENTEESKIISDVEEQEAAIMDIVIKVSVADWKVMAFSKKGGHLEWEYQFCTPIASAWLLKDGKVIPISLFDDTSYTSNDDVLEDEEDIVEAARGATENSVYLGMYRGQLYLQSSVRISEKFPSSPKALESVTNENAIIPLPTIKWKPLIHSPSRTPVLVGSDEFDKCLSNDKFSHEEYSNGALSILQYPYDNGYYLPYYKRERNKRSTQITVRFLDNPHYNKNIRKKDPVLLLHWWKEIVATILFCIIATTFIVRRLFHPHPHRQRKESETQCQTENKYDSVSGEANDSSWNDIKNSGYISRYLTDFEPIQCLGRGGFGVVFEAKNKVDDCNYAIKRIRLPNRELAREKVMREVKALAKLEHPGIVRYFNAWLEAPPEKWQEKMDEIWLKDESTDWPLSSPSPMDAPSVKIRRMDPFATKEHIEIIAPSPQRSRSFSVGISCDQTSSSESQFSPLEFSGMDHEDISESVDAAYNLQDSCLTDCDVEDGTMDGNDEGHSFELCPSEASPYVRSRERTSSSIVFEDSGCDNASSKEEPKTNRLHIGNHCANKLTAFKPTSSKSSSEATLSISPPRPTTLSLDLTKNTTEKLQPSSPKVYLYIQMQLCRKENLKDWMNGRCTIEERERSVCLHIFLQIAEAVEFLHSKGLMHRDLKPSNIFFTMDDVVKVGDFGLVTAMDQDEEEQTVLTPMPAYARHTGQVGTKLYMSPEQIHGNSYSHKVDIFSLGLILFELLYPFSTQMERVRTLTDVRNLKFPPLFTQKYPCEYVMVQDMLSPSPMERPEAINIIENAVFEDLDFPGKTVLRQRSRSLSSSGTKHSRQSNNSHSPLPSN

[12] = molecular target: T12, selected panels of kinases in HeLa and PC3 cell lysates (Homo sapiens, UniProt Q9UHD2); conditions: 10 uM; TBK1; peptide TGDLFAIk[…]; proteome HEL; labeling site Lys1
T12 construct: endogenous in cells; host or cells: HeLa and PC3 cell lysates

[13] = molecular target: T13, selected panels of kinases in HeLa and PC3 cell lysates (Homo sapiens, UniProt Q9Y616); conditions: 10 uM; proteome HEL; peptide […]k[…]; labeling site Protein Kinase Domain
T13 construct: endogenous in cells; host or cells: HeLa and PC3 cell lysates
T13 sequence (Q9Y616 whole entry, the tested form may be a part): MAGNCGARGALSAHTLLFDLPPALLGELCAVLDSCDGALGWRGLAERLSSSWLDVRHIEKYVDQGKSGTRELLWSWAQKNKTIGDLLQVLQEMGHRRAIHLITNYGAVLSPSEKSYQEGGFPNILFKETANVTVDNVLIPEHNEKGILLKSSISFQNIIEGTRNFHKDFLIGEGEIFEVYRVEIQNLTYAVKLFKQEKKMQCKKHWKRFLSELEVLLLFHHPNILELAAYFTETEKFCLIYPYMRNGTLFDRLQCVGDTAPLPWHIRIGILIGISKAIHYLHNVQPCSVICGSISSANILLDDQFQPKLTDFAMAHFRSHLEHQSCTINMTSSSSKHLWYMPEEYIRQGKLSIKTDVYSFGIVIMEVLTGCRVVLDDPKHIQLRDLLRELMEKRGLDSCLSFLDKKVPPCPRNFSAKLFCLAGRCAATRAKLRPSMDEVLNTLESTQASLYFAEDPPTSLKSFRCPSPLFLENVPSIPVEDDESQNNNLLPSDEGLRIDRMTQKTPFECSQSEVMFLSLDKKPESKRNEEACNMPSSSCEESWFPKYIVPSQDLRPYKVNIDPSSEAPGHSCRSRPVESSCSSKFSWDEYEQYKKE

T9 sequence (Q96SB4 whole entry): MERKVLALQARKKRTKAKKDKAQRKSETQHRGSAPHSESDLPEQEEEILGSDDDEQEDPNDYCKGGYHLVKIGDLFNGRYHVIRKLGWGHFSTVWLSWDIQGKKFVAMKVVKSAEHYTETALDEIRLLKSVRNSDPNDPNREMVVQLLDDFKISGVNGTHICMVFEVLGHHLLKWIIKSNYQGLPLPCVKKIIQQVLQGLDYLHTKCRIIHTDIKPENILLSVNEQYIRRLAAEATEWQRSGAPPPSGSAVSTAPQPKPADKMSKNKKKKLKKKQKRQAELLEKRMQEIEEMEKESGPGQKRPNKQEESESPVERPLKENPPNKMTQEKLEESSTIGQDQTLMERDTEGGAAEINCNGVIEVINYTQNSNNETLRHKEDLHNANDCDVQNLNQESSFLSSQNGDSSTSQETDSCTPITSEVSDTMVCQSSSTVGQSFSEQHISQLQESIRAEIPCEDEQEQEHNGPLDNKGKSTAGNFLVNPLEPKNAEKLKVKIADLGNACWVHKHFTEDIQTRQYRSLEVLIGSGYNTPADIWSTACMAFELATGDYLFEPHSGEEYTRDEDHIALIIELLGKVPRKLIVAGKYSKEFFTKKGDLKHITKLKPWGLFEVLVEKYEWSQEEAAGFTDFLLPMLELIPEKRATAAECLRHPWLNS
T4 sequence (P41743 whole entry): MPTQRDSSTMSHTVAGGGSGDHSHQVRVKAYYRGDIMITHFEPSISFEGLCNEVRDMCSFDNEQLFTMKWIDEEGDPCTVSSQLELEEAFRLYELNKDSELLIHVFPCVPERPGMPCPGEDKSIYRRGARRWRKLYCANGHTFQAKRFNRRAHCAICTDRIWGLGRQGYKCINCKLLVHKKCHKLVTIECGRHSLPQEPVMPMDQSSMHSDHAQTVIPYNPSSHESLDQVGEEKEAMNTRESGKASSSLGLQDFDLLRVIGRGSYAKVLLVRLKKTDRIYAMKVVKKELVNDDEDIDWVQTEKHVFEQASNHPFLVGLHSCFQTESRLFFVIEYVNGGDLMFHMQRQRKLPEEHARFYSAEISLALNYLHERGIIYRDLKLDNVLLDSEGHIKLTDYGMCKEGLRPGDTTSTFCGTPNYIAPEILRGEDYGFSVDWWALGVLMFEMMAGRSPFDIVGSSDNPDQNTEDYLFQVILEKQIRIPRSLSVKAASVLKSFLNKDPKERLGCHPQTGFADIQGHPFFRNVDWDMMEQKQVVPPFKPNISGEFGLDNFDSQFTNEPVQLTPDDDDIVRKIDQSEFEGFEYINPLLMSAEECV
T8 sequence (Q58A45 whole entry): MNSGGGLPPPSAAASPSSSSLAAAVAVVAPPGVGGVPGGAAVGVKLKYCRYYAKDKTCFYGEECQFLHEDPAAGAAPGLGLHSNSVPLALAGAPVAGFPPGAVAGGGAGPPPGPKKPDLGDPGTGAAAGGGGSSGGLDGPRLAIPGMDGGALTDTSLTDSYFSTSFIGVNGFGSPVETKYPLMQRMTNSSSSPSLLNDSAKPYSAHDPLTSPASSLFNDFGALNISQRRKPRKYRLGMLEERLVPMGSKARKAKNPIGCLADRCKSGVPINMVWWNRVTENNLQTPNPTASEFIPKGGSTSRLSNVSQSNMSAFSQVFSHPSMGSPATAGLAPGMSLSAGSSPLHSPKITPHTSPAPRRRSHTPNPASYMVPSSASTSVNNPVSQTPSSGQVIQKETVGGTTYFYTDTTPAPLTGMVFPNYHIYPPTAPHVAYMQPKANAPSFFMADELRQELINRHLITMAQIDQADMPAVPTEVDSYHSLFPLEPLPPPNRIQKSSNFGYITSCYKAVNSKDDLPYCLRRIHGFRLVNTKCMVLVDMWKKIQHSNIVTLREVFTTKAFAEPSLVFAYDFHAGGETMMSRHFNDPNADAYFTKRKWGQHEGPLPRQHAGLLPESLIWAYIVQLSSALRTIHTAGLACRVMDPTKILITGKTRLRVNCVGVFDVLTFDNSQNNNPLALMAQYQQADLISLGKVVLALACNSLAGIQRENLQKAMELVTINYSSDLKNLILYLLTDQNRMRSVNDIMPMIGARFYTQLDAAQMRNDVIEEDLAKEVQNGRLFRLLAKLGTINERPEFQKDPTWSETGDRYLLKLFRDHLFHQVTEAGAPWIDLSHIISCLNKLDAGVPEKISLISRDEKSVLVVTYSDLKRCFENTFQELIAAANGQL
T2 sequence (P10398 whole entry): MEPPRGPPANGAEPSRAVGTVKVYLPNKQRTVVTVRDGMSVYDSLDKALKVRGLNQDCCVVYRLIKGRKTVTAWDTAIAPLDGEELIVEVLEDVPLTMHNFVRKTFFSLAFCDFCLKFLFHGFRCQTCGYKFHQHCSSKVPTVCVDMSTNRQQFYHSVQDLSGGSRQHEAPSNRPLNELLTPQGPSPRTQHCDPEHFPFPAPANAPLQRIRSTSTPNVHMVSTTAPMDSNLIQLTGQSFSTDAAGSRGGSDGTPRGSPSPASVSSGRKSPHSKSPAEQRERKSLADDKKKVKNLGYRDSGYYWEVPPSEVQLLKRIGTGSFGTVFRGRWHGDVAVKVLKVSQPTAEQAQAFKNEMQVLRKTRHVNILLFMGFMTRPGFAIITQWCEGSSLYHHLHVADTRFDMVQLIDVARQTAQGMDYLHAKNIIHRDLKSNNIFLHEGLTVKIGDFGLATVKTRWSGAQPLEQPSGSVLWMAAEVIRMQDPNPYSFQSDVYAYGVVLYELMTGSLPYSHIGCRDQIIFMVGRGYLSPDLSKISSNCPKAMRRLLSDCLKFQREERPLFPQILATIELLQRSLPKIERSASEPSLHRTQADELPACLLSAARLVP
T5 sequence (P42680 whole entry): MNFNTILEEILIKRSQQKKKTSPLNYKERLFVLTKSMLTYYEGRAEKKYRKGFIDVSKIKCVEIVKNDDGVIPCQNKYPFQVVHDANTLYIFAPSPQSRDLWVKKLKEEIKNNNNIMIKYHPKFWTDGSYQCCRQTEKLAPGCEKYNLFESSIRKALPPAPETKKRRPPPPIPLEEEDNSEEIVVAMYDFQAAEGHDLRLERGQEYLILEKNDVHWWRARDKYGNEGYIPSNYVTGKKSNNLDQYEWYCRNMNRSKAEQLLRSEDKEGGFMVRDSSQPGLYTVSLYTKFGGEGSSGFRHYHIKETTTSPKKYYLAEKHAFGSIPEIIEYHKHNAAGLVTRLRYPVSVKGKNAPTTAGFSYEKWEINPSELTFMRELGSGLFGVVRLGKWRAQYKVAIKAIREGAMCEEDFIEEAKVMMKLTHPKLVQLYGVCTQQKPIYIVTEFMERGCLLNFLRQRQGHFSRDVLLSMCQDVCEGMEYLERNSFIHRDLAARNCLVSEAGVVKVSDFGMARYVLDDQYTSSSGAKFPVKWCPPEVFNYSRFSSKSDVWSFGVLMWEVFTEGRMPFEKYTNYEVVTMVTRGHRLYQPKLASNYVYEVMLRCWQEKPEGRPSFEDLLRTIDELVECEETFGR
T12 sequence (Q9UHD2 whole entry): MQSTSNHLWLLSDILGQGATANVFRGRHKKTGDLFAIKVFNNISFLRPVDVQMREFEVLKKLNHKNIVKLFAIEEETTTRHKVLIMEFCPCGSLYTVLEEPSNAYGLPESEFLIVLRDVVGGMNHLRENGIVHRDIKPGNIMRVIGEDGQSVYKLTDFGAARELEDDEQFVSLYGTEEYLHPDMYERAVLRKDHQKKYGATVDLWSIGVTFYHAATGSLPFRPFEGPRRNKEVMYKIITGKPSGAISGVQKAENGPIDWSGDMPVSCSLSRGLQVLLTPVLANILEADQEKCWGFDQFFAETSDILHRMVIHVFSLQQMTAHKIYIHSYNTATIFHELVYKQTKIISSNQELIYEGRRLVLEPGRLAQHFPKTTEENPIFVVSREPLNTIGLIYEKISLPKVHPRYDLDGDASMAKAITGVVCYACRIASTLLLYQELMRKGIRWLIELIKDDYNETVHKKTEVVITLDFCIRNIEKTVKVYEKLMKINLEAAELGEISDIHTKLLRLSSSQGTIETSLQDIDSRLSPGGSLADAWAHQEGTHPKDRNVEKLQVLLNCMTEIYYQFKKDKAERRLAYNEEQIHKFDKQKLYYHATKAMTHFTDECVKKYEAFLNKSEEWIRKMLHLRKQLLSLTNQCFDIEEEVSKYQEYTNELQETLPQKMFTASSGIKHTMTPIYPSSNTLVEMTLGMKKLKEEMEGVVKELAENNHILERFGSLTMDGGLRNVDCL

SMILES	% Inhibiton, JAK2 domain2 [1] [%]	% Inhibiton, ARAF [2] [%]	% Inhibition PITSLRE [3] [%]	% Inhibition PKCi [4] [%]	% Inhibition TEC [5] [%]	% Inhibition SYK [6] [%]	% Inhibiton, MST1 ([7]; proteome HEL) [%]	% Inhibiton, MST1 ([7]; proteome PC3) [%]	% Inhibition PAN3 [8] [%]	% Inhibition SRPK1 [9] [%]	% Inhibiton, MAP3K5 [10] [%]	% Inhibition PEK ([11]; proteome HEL) [%]	% Inhibition PEK ([11]; proteome PC3) [%]	% Inhibition TBK1 [12] [%]	% Inhibiton, IRAK3 [13] [%]
COc1cc(C(=O)N2CCC(N3CCN(C)CC3)CC2)ccc1Nc1ncc2c(n1)N(C1CCCC1)c1ccccc1C(=O)N2C [Compound 25, 11-cyclopentyl-2-((2-methoxy-4-(4-(4-methylpiperazin-1-yl)piperidine-1-carbonyl)phenyl)amino)-5-methyl-5H-benzo[e]pyrimido[5,4-b][1,4]diazepin-6(11H)-one]	-9.0	-0.657	5.1	13.3	8.9	5.7	-9.9	-0.157	-1.7	-29.3	17.3	6.4	6.5	-96.8	40.5
CCOc1cc(C(=O)N2CCC(N3CCN(C)CC3)CC2)ccc1Nc1ncc2c(n1)N(C1CCCC1)c1ccccc1C(=O)N2C [Compound 26]	6.5	2.9	3.5	-2.8	5.8	-0.8	15.9	-17.2	-17.8	-25	-8.4	-23.3	-4.9	~57.6	37
